Legend:
Type in all cases: cell-based
Candida albicans SLU-1 = assay: Radial diffusion assay (Example 3), wild type strain; conditions: FIG. 2A
Procedure: (§1) For the radial diffusion assays, Candida albicans SLU-1 were grown as described above and SLU-2G were grown overnight in Sabouraud dextrose broth supplemented with 10 μg/mL amphotericin B and 5 μg/mL ceftriaxone at 37° C. Cultures were diluted 1:25 into fresh, unsupplemented broth and allowed to grow for 5 hours at 37° C. Cells were pelleted at 1,500×g for 5 minutes at 4° C. Supernatant was decanted and replaced with 5 mL of 10 mM phosphate buffer, pH 7.4. After centrifugation the cell pellets were resuspended with 5 mL phosphate buffer for an OD570 determination. One OD570 for SLU-1 cells was 3×10^7 CFU/mL and for SLU-2G cells was 5×10^6 CFU/mL.
(§2) Cells were added to 10 mL of molten, cooled (˜45° C.) underlayer agarose to a concentration of 1×10^6/mL and the suspension was poured into a level square petri plate with gentle rocking to allow even distribution and solidification to a uniform thickness of about 1 mm. Wells were cut into the hardened agarose with a sterilize, 3 mm diameter punch with vacuum.
Peptides were two-fold serially diluted with DPBS from a starting concentration of approximately 1 mg/mL. Amphotericin B and nystatin were similarly diluted starting at 100 and 225 μg/mL, respectively. Five μL were added per well and allowed to diffuse at 37° C. for 1.5-2.0 hours. Then 10 mL of molten overlayer agarose were added and the plates were incubated inverted at 37° C. overnight. Plates were stained with a dilute Coomassie solution, inhibition zones were measured with calipers and net areas were calculated, then converted to pmol values by PROBIT analysis. The results of a representative experiment are shown in FIG. 2A for the SLU-1 strain and FIG. 2B for the SLU-2G strain. In FIGS. 2A and 2B, the fungicidal activity is represented for XMP.13 as open circles; for XMP.37 as closed circles; for XMP.97 as open triangles; for XMP.127 as closed triangles; for amphotericin B as open squares; and for nystatin as closed squares. The pmol for a 30 mm^2 zone of inhibition were calculated to be: for XMP.13, 689 pmol against SLU-1 and 129 pmol against SLU-2G; for XMP.37, 231 pmol against SLU-1 and 75 pmol against SLU-2G; for XMP.97, 670 pmol against SLU-1 and 161 pmol against SLU-2G; for XMP.127, 935 pmol against SLU-1 and 116 pmol against SLU-2G; for amphotericin B, 36 pmol against SLU-1 and >541 pmol for SLU-2G; and for nysttin, 98 pmol against SLU-1 and >1,215 pmol against SLU-2G.

[1] = test system: Candida albicans SLU-2G amphotericin B-resistant strain; assay: Radial diffusion assay (Example 3), amphotericin B-resistant strain; conditions: FIG. 2B
Procedure: Domain III derived peptides were tested for their fungicidal activity on amphotericin resistant Candida. Resistant colonies of Candida were isolated using a gradient plate technique. A slanted Sabouraud dextrose agar plate was poured and allowed to harden. The plate was made level and additional agar supplemented with nystatin (Sigma, St. Louis, Mo., cat. no. N-3503) at a concentration of 10 μg/mL was poured. Cells from the CA-1 colony of Candida albicans SLU-1 strain described in Example 2 (10^7 cells in a volume of 100 μL) were spread over the plate and incubated at […] overnight.
as §1, with “determination.” for “determination. One OD570 for SLU-1 cells was 3×10^7 CFU/mL and for SLU-2G cells was 5×10^6 CFU/mL.”
as §2
Peptides were two-fold serially diluted with DPBS from a starting concentration of approximately 1 mg/mL. […] Five μL were added per well and allowed to diffuse at 37° C. for 1.5-2.0 hours. Then 10 mL of molten overlayer agarose were added and the plates were incubated inverted at 37° C. overnight. Plates were stained with a dilute Coomassie solution, inhibition zones were measured with calipers and net areas were calculated, then converted to pmol values by PROBIT analysis.

Candida parapsilosis = assay: Radial diffusion assay, Candida species (Table 2)
Procedure: (§3) The anti-fungal activity of Domain III derived peptides was also evaluated in vitro against a variety of fungal species, including Candida glabrata, Candida krusei, Candida lusitaniae, Candida parapsilosis, and Candida tropicalis. For these experiments, one colony of each of the above-listed Candida strains was picked from a Sabouraud's dextrose agar (SDA) plate and inoculated into 5 mL of Sabouraud's dextrose broth (SDB, 2% dextrose and 1% neopeptone) or, for C. krusei, Yeast Malt broth (YM, Becton Dickenson, Cockeysville, Md., cat no. BL 11405) in 12 mL polyproplyene snap-cap tubes. The tube cultures were incubated overnight with shaking at 37° C.
(§4) Cultures were harvested when the OD570 of a 1:10 dilution was greater than or equal to the following values: 0.083 for Candida glabrata, 0.154 for Candida krusei, 0.117 for Candida lusitaniae, 0.076 for Candida parapsilosis, and 0.192 for Candida tropicalis. Cells were centrifuged for 7 minutes in an Eppendorf microfuge at 3,000 rpm (about 1,500 g). The cell pellet was resuspended in 1 mL PBS and approximately 1×10^7 cells in about 0.5 mL were added to 10 mL of cooled underlay agar (3% SBD, 1% agarose, 0.02% Tween 20, 10 mM sodium phosphate buffer, pH 7.4 at about 45° C.). The suspension was poured into square petri plates, allowed to solidify, and wells cut as described above.
(§5) Peptides were two-fold serially diluted with D-PBS from about 20 μL of a starting concentration of approximately 1 mg/mL. Five μL of peptide dilution were added per well and allowed to diffuse for at least about 30 minutes into the agar at […] (to allow complete diffusion). Then 10 mL of molten overlayer agarose (6% SDB, 1% agarose, 10 mM sodium phosphate buffer, pH 7.4 at about 45° C.) were added and the plates were incubated inverted at […] overnight. Plates were stained with a dilute Coomassie solution, inhibition zones were measured with calipers and net areas were calculated, then converted to pmole values by PROBIT analysis.

Candida glabrata = assay: Radial diffusion assay, Candida species (Table 2)
Procedure: as §3, §4, §5

Candida lusitaniae = assay: Radial diffusion assay, Candida species (Table 2)
Procedure: as §3, §4, §5

Candida tropicalis = assay: Radial diffusion assay, Candida species (Table 2)
Procedure: as §3, §4, §5

Candida krusei = assay: Radial diffusion assay, Candida species (Table 2)
Procedure: as §3, §4, §5

## C[C@@H]1[C@H](O)[C@@H](C)/C=C/C=C/C=C/C=C/C=C/C=C/C=C/[C@H](O[C@@H]2O[C@H](C)[C@@H](O)[C@H](N)[C@@H]2O)C[C@@H]2O[C@](O)(C[C@@H](O)C[C@@H](O)[C@H](O)CC[C@@H](O)C[C@@H](O)CC(=O)O[C@H]1C)C[C@H](O)[C@H]2C(=O)O [Amphotericin B, amphotericin B, reference compound]
Candida albicans SLU-1
  pmol for a 30 mm^2 zone of inhibition against SLU-1: 36 pmol
[1]
  pmol for a 30 mm^2 zone of inhibition against SLU-2G: > 541 pmol
Candida parapsilosis
  Anti-fungal activity: pmol/30 mm^2 zone, Candida parapsilosis: 91 pmol/30 mm^2 zone
Candida glabrata
  Anti-fungal activity: pmol/30 mm^2 zone, Candida glabrata: <17 pmol/30 mm^2 zone
Candida lusitaniae
  Anti-fungal activity: pmol/30 mm^2 zone, Candida lusitaniae: 35 pmol/30 mm^2 zone
Candida tropicalis
  Anti-fungal activity: pmol/30 mm^2 zone, Candida tropicalis: 108 pmol/30 mm^2 zone
Candida krusei
  Anti-fungal activity: pmol/30 mm^2 zone, Candida krusei: 120 pmol/30 mm^2 zone

## H-KSKVGWAIQLFHKK-NH2 [XMP.37]
Candida albicans SLU-1
  pmol for a 30 mm^2 zone of inhibition against SLU-1: 231 pmol
[1]
  pmol for a 30 mm^2 zone of inhibition against SLU-2G: 75 pmol

## H-KSKVGWLIQLFHKK-NH2 [XMP.13]
Candida albicans SLU-1
  pmol for a 30 mm^2 zone of inhibition against SLU-1: 689 pmol
[1]
  pmol for a 30 mm^2 zone of inhibition against SLU-2G: 129 pmol
Candida parapsilosis
  Anti-fungal activity: pmol/30 mm^2 zone, Candida parapsilosis: 1,502 pmol/30 mm^2 zone
Candida glabrata
  Anti-fungal activity: pmol/30 mm^2 zone, Candida glabrata: 1,022 pmol/30 mm^2 zone
Candida lusitaniae
  Anti-fungal activity: pmol/30 mm^2 zone, Candida lusitaniae: 746 pmol/30 mm^2 zone
Candida tropicalis
  Anti-fungal activity: pmol/30 mm^2 zone, Candida tropicalis: 452 pmol/30 mm^2 zone
Candida krusei
  Anti-fungal activity: pmol/30 mm^2 zone, Candida krusei: 1,747 pmol/30 mm^2 zone
